The results in this text go back to patent publication US20230233538A1, “COMPOSITION FOR TREATING CORONAVIRUS DISEASE-19, COMPRISING PHENANTHROINDOLIZIDINE AND PHENANTHROQUI[…] DERIVATIVES, OPTICAL ISOMER THEREOF, OR PHARMACEUTICALLY ACCEPTABLE SALTS THEREOF AS ACTIVE INGREDIENT” (priority 2020, published 2023).

Molecules are shown by their SMILES. Where two headings read alike, the source gives them in different places.

Series [1] relates to Vero CCL-81 cells.
The test system of series [2] is SARS-CoV-2. The series is described as follows: microbe, parasite or virus in culture. It counts as cell-based. To be noted: for EC50: read-out: Effective Concentration 50 (EC50), 50% virus proliferation inhibitory concentration.
Series [3] in a line: in vitro. The following applies: African green monkey, Cytotoxic Concentration 50 (CC50).
The mark [4] stands for this setting: Severe acute respiratory syndrome coronavirus 2, 48 h.

As for `COc1cc2c3c(c4ccc(NS(C)(=O)=O)cc4c2cc1OC)CN1CCC[C@@H]1C3` [Compound 1, (R)-N-(2,3-dimethoxy-9,11,12,13,13a,14-hexahydrodibenzo-[f,h]pyrrolo[1,2-b]isoquinolin-6-yl)methanesulfonamide], the “Selectivity Index (SI)” value in series [1] was determined as 52. Moreover, the EC50 in series [2] (setting [4]) is 35 nM. The same molecule displayed a half-maximal cytotoxic concentration (CC50) in series [3] of 1820 nM.
In the case of `COc1cc2c3c(c4ccc(NS(C)(=O)=O)cc4c2cc1OC)CN1CCCC[C@@H]1C3` [Compound 2, (R)-N-(2,3-dimethoxy-11,12,13,14,14a,15-hexahydro-9H-dibenzo[f,h]pirido[1,2-b]isoquinolin-6-yl)methanesulfonamide], the “Selectivity Index (SI)” value in series [1] is on record as 10. The “fold greater effect (virus proliferation inhibitory ability) compared to Remdesivir” value in series [2] is ~1,700 fold. Moreover, the EC50 in series [2] (setting [4]) is 13 nM. For the same molecule, in series [3], the half-maximal cytotoxic concentration (CC50) worked out at 126 nM.
As for `COC(=O)Nc1ccc2c3c(c4cc(OC)c(OC)cc4c2c1)CC1CCCCN1C3` (centres unmarked) [Compound 3, methyl(2,3-dimethoxy-11,12,13,14,14a,15-hexahydro-9H-dibenzo[f,h]pirido[1,2-b]isoquinolin-6-yl)carbamate], the “Selectivity Index (SI)” value in series [1] was 19. The “fold greater effect (virus proliferation inhibitory ability) compared to Remdesivir” value in series [2] is on record as ~1,300 fold. Further, the EC50 in series [2] (setting [4]) was 17 nM. The 50% cytotoxic concentration (CC50) in series [3] came out at 317 nM.
`CCC(CC)COC(=O)[C@H](C)N[P@](=O)(OC[C@H]1O[C@@](C#N)(c2ccc3c(N)ncnn23)[C@H](O)[C@@H]1O)Oc1ccccc1` [Remdesivir, reference compound]: in series [1], the “Selectivity Index (SI)” value turned out to be 7.8. Moreover, the CC50 in series [1] (African green monkey) and in series [3] was 172000 nM each time. For the same molecule, the EC50 was 22000 nM in series [2] (setting [4]) and 22100 nM in series [2].
In the case of `COc1ccc2c3c(c4cc(OC)c(OC)cc4c2c1)C[C@H]1CCCN1C3` [antofine, reference compound], in series [1], the “Selectivity Index (SI)” value is recorded as 24. Further, the EC50 in series [2] amounted to 37 nM. Further, the midpoint of cytotoxicity in series [3], the CC50, lay at 872 nM.
`COc1ccc2c3c(c4cc(OC)c(OC)cc4c2c1)C[C@H]1CCCCN1C3` [cryptopleurin, reference compound]: in series [2], the EC50 stood at 11 nM.

For orientation: CC50 means the concentration that lowers cell viability or growth by half.
